Laboratory results published in patent US12594276B2, “Inhibitors of human immunodeficiency virus replication” (ViiV Healthcare UK (No.5) Limited, priority 2024, dated 2026).

How the values were obtained:
[1] = tested on: recombinant NL4-3 virus (nef section replaced with Renilla luciferase gene) in MT-2 cells; assay: HIV cell culture assay (antiviral activity, luciferase readout); format: cell-based; settings: Renilla, NL43, MT-2 cells infected for 4-5 days with recombinant NL4-3 Renilla luciferase virus
Method in brief: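 293T transfection → virus harvest at 2-3 d → titer in MT-2 by luciferase. MT-2 + virus + serial cpd dilutions, 4-5 d. Live-cell luciferase read; EC50 by median effect fit.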

[2] = Compound cytotoxicity, XTT-based colorimetric assay; format: cell-based; settings: human; uninfected MT2 cells, day 4, XTT; read-out: CC50
Method in brief: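 Uninfected MT2 cells were treated with compound under the same protocol as the antiviral assay. Viability was read on day 4 with an XTT colorimetric assay, from which CC50 values were derived.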

| SMILES | EC50 [1] | CC50 at 4 days [2] |
| --- | --- | --- |
| CS(=O)(=O)Nc1nn(CCN2CC(C(F)F)C2)c2c(-n3c([C@H](Cc4cc(F)cc(F)c4)NC(=O)Cn4nc(C(F)F)c5c4C(F)(F)[C@@H]4C[C@H]54)nc4nc(C5CCC(F)(F)CC5)ccc4c3=O)ccc(Cl)c12 (atropisomer, axis not shown; (P)) [Example 160, N-[(1S)-1-[(3P)-3-(4-chloro-1-{2-[3-(difluoromethyl)azetidin-1-yl]ethyl}-3-methanesulfonamido-1H-indazol-7-yl)-7-(4,4-difluorocyclohexyl)-4-oxo-3H,4H-pyrido[2,3-d]pyrimidin-2-yl]-2-(3,5-difluorophenyl)ethyl]-2-[(2S,4R)-9-(difluoromethyl)-5,5-difluoro-7,8-diazatricyclo[4.3.0.0^2,^4]nona-1(6),8-dien-7-yl]acetamide] | 23 pM | > 50000 pM |
| COCCNc1cc(C2CCC(F)(F)CC2)nc2nc([C@H](Cc3cc(F)cc(F)c3)NC(=O)Cn3nc(C(F)F)c4c3C(F)(F)[C@@H]3C[C@H]43)n(-c3ccc(Cl)c4c(NS(C)(=O)=O)nn(CCN5CCCC(F)(F)C5)c34)c(=O)c12 (atropisomer, axis not shown; (P)) [Example 416, N-[(1S)-1-[(3P)-3-{4-chloro-1-[2-(3,3-difluoropiperidin-1-yl)ethyl]-3-methanesulfonamido-1H-indazol-7-yl}-7-(4,4-difluorocyclohexyl)-5-[(2-methoxyethyl)amino]-4-oxo-3H,4H-pyrido[2,3-d]pyrimidin-2-yl]-2-(3,5-difluorophenyl)ethyl]-2-[(2S,4R)-9-(difluoromethyl)-5,5-difluoro-7,8-diazatricyclo[4.3.0.0^2,^4]nona-1(6),8-dien-7-yl]acetamide] | 12 pM | > 20000 pM |
| COCCCn1nc(NS(C)(=O)=O)c2c(Cl)ccc(-n3c([C@H](Cc4cc(F)cc(F)c4)NC(=O)Cn4nc(C(F)F)c5c4C[C@@H]4C[C@H]54)nc4nc(C5CCC(F)(F)CC5)cc(C)c4c3=O)c21 (atropisomer, axis not shown; (P)) [Example 86, N-[(1S)-1-[(3P)-3-[4-chloro-3-methanesulfonamido-1-(3-methoxypropyl)-1H-indazol-7-yl]-7-(4,4-difluorocyclohexyl)-5-methyl-4-oxo-3H,4H-pyrido[2,3-d]pyrimidin-2-yl]-2-(3,5-difluorophenyl)ethyl]-2-[(2S,4S)-9-(difluoromethyl)-7,8-diazatricyclo[4.3.0.0^2,^4]nona-1(6),8-dien-7-yl]acetamide] | 11 pM | > 50000 pM |
| COCCCn1nc(NS(C)(=O)=O)c2c(Cl)ccc(-n3c([C@H](Cc4cc(F)cc(F)c4)NC(=O)Cn4nc(C(F)F)c5c4C(F)(F)[C@@H]4C[C@H]54)nc4nc(C5CCC(F)(F)CC5)cc(CN5C[C@@H](C)O[C@@H](C)C5)c4c3=O)c21 (atropisomer, axis not shown; (P)) [Example 448, N-[(1S)-1-[(3P)-3-[4-chloro-3-methanesulfonamido-1-(3-methoxypropyl)-1H-indazol-7-yl]-7-(4,4-difluorocyclohexyl)-5-{[(2R,6S)-2,6-dimethylmorpholin-4-yl]methyl}-4-oxo-3H,4H-pyrido[2,3-d]pyrimidin-2-yl]-2-(3,5-difluorophenyl)ethyl]-2-[(2S,4R)-9-(difluoromethyl)-5,5-difluoro-7,8-diazatricyclo[4.3.0.0^2,4]nona-1(6),8-dien-7-yl]acetamide] | 9 pM | > 20000 pM |
| CC1(C)CN(CCn2nc(NS(C)(=O)=O)c3c(Cl)ccc(-n4c([C@H](Cc5cc(F)cc(F)c5)NC(=O)Cn5nc(C6CC6)c6c5C[C@@H]5C[C@H]65)nc5nc(C6CCC(F)(F)CC6)cc(C(F)F)c5c4=O)c32)CC(C)(C)O1 (atropisomer, axis not shown; (P)) [Example 421, N-[(1S)-1-[(3P)-3-{4-chloro-3-methanesulfonamido-1-[2-(2,2,6,6-tetramethylmorpholin-4-yl)ethyl]-1H-indazol-7-yl}-7-(4,4-difluorocyclohexyl)-5-(difluoromethyl)-4-oxo-3H,4H-pyrido[2,3-d]pyrimidin-2-yl]-2-(3,5-difluorophenyl)ethyl]-2-[(2S,4S)-9-cyclopropyl-7,8-diazatricyclo[4.3.0.0^2,^4]nona-1(6),8-dien-7-yl]acetamide] | 12 pM | > 20000 pM |
| Cc1cc(C2(F)CCC(F)(F)CC2)nc2nc([C@H](Cc3cc(F)cc(F)c3)NC(=O)Cn3nc(C(F)F)c4c3C(F)(F)[C@@H]3C[C@H]43)n(-c3ccc(Cl)c4c(NS(C)(=O)=O)nn(CCN5C[C@H](C)OC(C)(C)C5)c34)c(=O)c12 (atropisomer, axis not shown; (P)) [Example 576] | 10 pM | > 20000 pM |
| Cc1cc(C2(F)CCC(F)(F)CC2)nc2nc([C@H](Cc3cc(F)cc(F)c3)NC(=O)Cn3nc(C(F)F)c4c3C[C@@H]3C[C@H]43)n(-c3ccc(Cl)c4c(NS(C)(=O)=O)nn(CCN5C[C@@H](C)O[C@@H](C)C5)c34)c(=O)c12 (atropisomer, axis not shown; (P)) [Example 596, N-[(1S)-1-[(3P)-3-(4-chloro-1-{2-[(2R,6S)-2,6-dimethylmorpholin-4-yl]ethyl}-3-methanesulfonamido-1H-indazol-7-yl)-5-methyl-4-oxo-7-(1,4,4-trifluorocyclohexyl)-3H,4H-pyrido[2,3-d]pyrimidin-2-yl]-2-(3,5-difluorophenyl)ethyl]-2-[(2S,4S)-9-(difluoromethyl)-7,8-diazatricyclo[4.3.0.0^2,^4]nona-1(6),8-dien-7-yl]acetamide] | 29 pM | > 20000 pM |
| Cc1cc(C2CCC(F)(F)CC2)nc2nc([C@H](Cc3cc(F)cc(F)c3)NC(=O)Cn3nc(C(F)F)c4c3C(F)(F)[C@@H]3C[C@H]43)n(-c3ccc(Cl)c4c(NS(C)(=O)=O)nn(CCOC(F)F)c34)c(=O)c12 (atropisomer, axis not shown; (P)) [Example 94, N-[(1S)-1-[(3P)-3-{4-chloro-1-[2-(difluoromethoxy)ethyl]-3-methanesulfonamido-1H-indazol-7-yl}-7-(4,4-difluorocyclohexyl)-5-methyl-4-oxo-3H,4H-pyrido[2,3-d]pyrimidin-2-yl]-2-(3,5-difluorophenyl)ethyl]-2-[(2S,4R)-9-(difluoromethyl)-5,5-difluoro-7,8-diazatricyclo[4.3.0.0^2,^4]nona-1(6),8-dien-7-yl]acetamide] | 23 pM | > 50000 pM |
| Cc1cc(C2CCC(F)(F)CC2)nc2nc([C@H](Cc3cc(F)cc(F)c3)NC(=O)Cn3nc(C4CC4)c4c3C[C@@H]3C[C@H]43)n(-c3ccc(Cl)c4c(NS(C)(=O)=O)nn(CC(=O)N5C[C@@H](C)O[C@@H](C)C5)c34)c(=O)c12 (atropisomer, axis not shown; (P)) [Example 384, N-[(1S)-1-[(3P)-3-(4-chloro-1-{2-[(2R,6S)-2,6-dimethylmorpholin-4-yl]-2-oxoethyl}-3-methanesulfonamido-1H-indazol-7-yl)-7-(4,4-difluorocyclohexyl)-5-methyl-4-oxo-3H,4H-pyrido[2,3-d]pyrimidin-2-yl]-2-(3,5-difluorophenyl)ethyl]-2-[(2S,4S)-9-cyclopropyl-7,8-diazatricyclo[4.3.0.0^2,^4]nona-1(6),8-dien-7-yl]acetamide] | 25 pM | > 20000 pM |
